Measured values reported in patent US7622551B2, “Leukocyte stimulating peptides” (POSCO, priority 2004, dated 2009).
“Also recorded” adds a separate entry of the source. Where no end group is shown, it is not given here.

How the values were obtained:
[1] = system: differentiated HL60 cells; experiment: [Ca2+]i increase in fura-2 loaded dHL60 cells; format: cell-based, human; conditions: for [Ca^2+]i: differentiated HL60 cells, fura-2, 1 μM of peptide
Protocol: (§1) U937 (human histiocytic lymphoma cells), HL60 (human promyelocytic leukemia cells), Raw 264.7 (mouse macrophage), Jurkat (human acute T cell leukemia), PC12 (rat adrenal pheochromocytoma cells), 3Y1 (Rat embryonic fibroblasts), 3T3L1 (preadipocytes), and NCI-H292 (human mucoepidermoid pulmonary carcinoma cells) were obtained from the American Type Culture Collection (Rockville, Md.) and maintained as recommended. FPR- or FPRL1 expressing RBL-2H3 cells were cultured as described previously (He et al. J. Immunol. 2000. 165: 4598-4605). Cells were maintained at about 1×10^6 cells/ml under standard incubator conditions (humidified atmosphere, 95% air, 5% CO2, at 37° C.). HL60 cells were induced to differentiate into the granulocyte phenotype by adding dimethylsulfoxide (DMSO) (final concentration 1.25%, v/v) for 4 days to the culture medium, as described previously (Itoh et al. Blood. 1998. 92: 1432-1441).
(§2) The level of [Ca^2+]i was determined using Grynkiewicz's method using fura-2/AM (Grynkiewicz et al. J. Biol. Chem. 1985. 260: 3440-3550). Briefly, prepared cells were incubated with 3 μM of fura-2/AM at 37° C. for 50 min in serum-free RPMI 1640 medium under continuous stirring. 2×10^6 cells were aliquoted for each assay in Ca^2+ free Locke's solution (154 mM NaCl, 5.6 mM KCl, 1.2 mM MgCl2, 5 mM HEPES, pH 7.3, 10 mM glucose, and 0.2 mM EGTA). Fluorescence changes were measured at the dual excitation wavelength of 340 nm and 380 nm, and the calculated fluorescence ratio was translated into [Ca^2+]i.

human monocytes = experiment: Chemotaxis assay (modified Boyden chamber), monocytes; format: cell-based; conditions: FIG. 6B; control peptide at concentrations less than 10 μM
Protocol: FIGS. 6A and 6B show chemotactic effect of peptides. Assays were performed using a modified Boyden chamber assay, as described in the Examples. Isolated human neutrophils (A) or monocytes (B) (1×10^6 cells/ml in serum free RPMI) were added to the upper wells of a 96-well chemotaxis chamber and migration across a 3 μm pore size (5 μm for monocytes) polycarbonate membrane was assessed after 2 hrs incubation at 37° C. The numbers of migrated cells were determined by counting them in a high power field (400×). Results are presented as means±S.E. of three independent experiments each performed in duplicate.
Chemotaxis assays were performed using multiwell chambers (Neuroprobe Inc., Gaithersburg, Md.) (Bae et al. Blood. 2001. 97: 2854-2862). Briefly, prepared human monocytes were suspended in RPMI at a concentration of 1×10^6 cells/ml, and 25 μl of the suspension was then placed onto the upper well of a chamber separated by a 5 μm polyhydrocarbon filter (3 μm pores size not polyvinylpyrrolidone coated, as is needed for neutrophils) from peptides or N-formyl-methionyl-leucyl-phenylalanine (fMLF) in the lower well. After incubation for 2 hours (90 minutes for neutrophils) at 37° C., non-migrated cells were removed by scraping, and cells that migrated across the filter were dehydrated, fixed, and stained with hematoxylin (Sigma, St. Louis, Mo.). Stained cells were counted in five randomly chosen high power fields (HPF) (400×) (Bae et al. Blood. 2001. 97: 2854-2862).

FPR = molecular target: T1, FPR (Homo sapiens, UniProt P21462); experiment: [Ca2+]i increase in FPR-expressing RBL-2H3 cells; format: cell-based; conditions: data not shown
T1 construct: expressed in transfected cells; host or cells: RBL-2H3
T1 sequence (P21462 1-350): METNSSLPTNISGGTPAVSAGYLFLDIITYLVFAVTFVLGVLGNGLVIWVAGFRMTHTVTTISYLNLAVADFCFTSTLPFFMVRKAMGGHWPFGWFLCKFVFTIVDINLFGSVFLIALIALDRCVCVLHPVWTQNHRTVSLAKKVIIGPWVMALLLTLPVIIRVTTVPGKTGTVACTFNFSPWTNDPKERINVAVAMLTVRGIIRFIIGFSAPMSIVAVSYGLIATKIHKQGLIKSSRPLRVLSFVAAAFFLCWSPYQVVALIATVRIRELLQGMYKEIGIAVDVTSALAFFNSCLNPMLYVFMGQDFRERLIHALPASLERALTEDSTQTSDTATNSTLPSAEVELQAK
Protocol: as §1, §2

FPRL1 = molecular target: T2, FPRL1 (Homo sapiens, UniProt P25090); experiment: [Ca2+]i increase in FPRL1-expressing RBL-2H3 cells; format: cell-based; conditions: 10 μM of each peptide (FIG. 7)
T2 construct: expressed in transfected cells; host or cells: RBL-2H3
T2 sequence (P25090 1-351): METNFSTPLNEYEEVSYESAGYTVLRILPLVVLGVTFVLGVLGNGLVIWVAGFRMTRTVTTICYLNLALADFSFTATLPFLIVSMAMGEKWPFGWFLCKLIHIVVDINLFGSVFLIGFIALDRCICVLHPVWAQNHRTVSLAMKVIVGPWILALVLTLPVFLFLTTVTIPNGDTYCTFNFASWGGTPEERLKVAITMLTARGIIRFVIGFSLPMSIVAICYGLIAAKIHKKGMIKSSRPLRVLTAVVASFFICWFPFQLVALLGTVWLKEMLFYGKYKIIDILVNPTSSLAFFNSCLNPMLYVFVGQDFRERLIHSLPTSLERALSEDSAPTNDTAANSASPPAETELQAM
Protocol: as §1, §2

[2] = system: undifferentiated HL60 cells; experiment: [Ca2+]i increase in undifferentiated HL60 cells; format: cell-based, human; conditions: for [Ca^2+]i increase in undifferentiated HL60 cells: peptides 10 μM (FIG. 8)
Protocol: as §1, §2

human neutrophils = experiment: Superoxide generation (cytochrome c reduction) in human neutrophils; format: cell-based; conditions: for Superoxide production: 1 μM of peptide, cytochrome c reduction
Protocol: Peripheral blood leukocyte concentrates were donated by the Ulsan Red Cross Blood Center (Ulsan, Korea). PBMCs were separated on a Histopaque-1077 gradient. After two washings with HBSS without Ca^2+ and Mg^2+, the PBMCs were suspended in 10% FBS containing RPMI and incubated for 60 min at 37° C. to let the monocytes attach to the culture dish. Cells were washed 5 times with warmed RPMI medium to remove lymphocytes, and then the attached monocytes were collected, as described previously (Bae et al. J. Leukoc. Biol. 1999. 65: 241-248). Human neutrophils were isolated according to standard procedures; i.e., dextran sedimentation, hypotonic lysis of erythrocytes, and using a medium lymphocyte separation gradient, as described previously (Seo et al. J. Immunol. 1997. 158: 1895-1901). Isolated human leukocytes were then used promptly.
We determined superoxide anion generation by measuring cytochrome c reduction using a microtiter 96 well plate ELISA reader (Bio-Tekinstruments, EL312e, Winooski, Vt.) as described previously (Bae et al. Blood. 2001. 97: 2854-2862). Human neutrophils (1×10^6 cells/100 μl of RPMI 1640 medium per well of a 96-well plate) were preincubated with 50 μM of cytochrome c at 37° C. for 1 min and then incubated with the indicated peptide concentrations. Superoxide generation was determined from change in light absorption at 550 nm over 5 minutes at 1 min intervals.

Row | Substance | Concentration of maximal activity, [Ca^2+]i increase ([1]; dHL60 cells, data not shown) | [Ca^2+]i [1] | Cellular chemotaxis in human monocytes (in words) (human monocytes) | [Ca^2+]i in FPR-expressing RBL-2H3 cells / ligand for FPR (FPR) | [Ca^2+]i increase in FPRL1-expressing RBL-2H3 cells (FPRL1) | [Ca^2+]i increase in undifferentiated HL60 cells [2] | Effect of PTX on peptide-stimulated calcium signaling ([2]; undifferentiated HL60 cells, data not shown) | Superoxide generation (in words) (human neutrophils) | Superoxide production (human neutrophils)
1 | MKYYYM-NH2 [Peptide P24] | approximately 3 μM | 165 ± 23.4 nM | induced cellular chemotaxis | not for FPR | induced calcium increase | dramatically induced | partially inhibited | stimulate superoxide generation in a concentration-dependent manner; also recorded: most potent | 34.2 ± 0.48 nmole/10^6 cells
2 | MKYYKM-NH2 [Peptide P21] | – | 122 ± 15.7 nM | induced cellular chemotaxis | not for FPR | induced calcium increase | did not affect | – | stimulate superoxide generation in a concentration-dependent manner | 12.7 ± 1.76 nmole/10^6 cells
3 | RKYHVM-NH2 [Peptide P14] | – | 85 ± 9.5 nM | induced cellular chemotaxis | not for FPR | induced calcium increase | did not affect | – | stimulate superoxide generation in a concentration-dependent manner | 9.3 ± 1.42 nmole/10^6 cells
